± gives the standard deviation of the averaged measurements.
Legend:
BI-2536 = compound: CC[C@@H]1C(=O)N(C)c2cnc(Nc3ccc(C(=O)NC4CCN(C)CC4)cc3OC)nc2N1C1CCCC1 [BI-2536]; assay: surviving fraction relative to DMSO-only wells; higher = less growth inhibition; settings: exposure time: 5 days
Summary of the method: (§1)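 For each tumour cell line, log-phase cells were put into 384-well plates at 250–500 cells per well, then after 24 hours exposed continuously for five days to inhibitors at 0.5, 1, 5, 10, 50, 100, 500 and 1000 nM. Viability was assessed by CellTiter-Glo luminescence, with surviving fraction expressed relative to the median of DMSO-only wells. Lines were screened three times and retained only if replicate Pearson r exceeded 0.7 and median Z' exceeded 0.3.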

CANERTINIB = compound: C=CC(=O)Nc1cc2c(Nc3ccc(F)c(Cl)c3)ncnc2cc1OCCCN1CCOCC1 [CANERTINIB]; assay: as above; settings: exposure time: 5 days
Summary of the method: as §1

Row | Test System | surviving fraction (BI-2536; 0.5 nM) | surviving fraction (BI-2536; 1 nM) | surviving fraction (BI-2536; 5 nM) | surviving fraction (BI-2536; 10 nM) | surviving fraction (BI-2536; 50 nM) | surviving fraction (BI-2536; 100 nM) | surviving fraction (BI-2536; 500 nM) | surviving fraction (BI-2536; 1000 nM) | surviving fraction (CANERTINIB; 0.5 nM) | surviving fraction (CANERTINIB; 1 nM) | surviving fraction (CANERTINIB; 5 nM) | surviving fraction (CANERTINIB; 10 nM) | surviving fraction (CANERTINIB; 50 nM) | surviving fraction (CANERTINIB; 100 nM) | surviving fraction (CANERTINIB; 500 nM) | surviving fraction (CANERTINIB; 1000 nM)
1 | CAL120 BREAST | 0.941 ± 0.025 | 0.431 ± 0.034 | 0.176 ± 0.0061 | 0.151 ± 0.013 | 0.126 ± 0.01 | 0.113 ± 0.0079 | 0.0725 ± 0.0027 | 0.0657 ± 0.0062 | 0.903 ± 0.055 | 0.91 ± 0.063 | 0.91 ± 0.08 | 0.902 ± 0.036 | 0.921 ± 0.087 | 0.928 ± 0.046 | 0.795 ± 0.092 | 0.597 ± 0.021
2 | MDAMB436 BREAST | 0.841 ± 0.027 | 0.649 ± 0.065 | 0.4 ± 0.048 | 0.27 ± 0.0028 | 0.331 ± 0.017 | 0.379 ± 0.032 | 0.394 ± 0.027 | 0.38 ± 0.04 | 0.798 ± 0.056 | 0.875 ± 0.064 | 0.854 ± 0.065 | 0.839 ± 0.061 | 0.956 ± 0.094 | 0.98 ± 0.13 | 0.839 ± 0.054 | 0.742 ± 0.067
3 | SG27 HEADNECK | 0.99 ± 0.077 | 1.16 ± 0.1 | 1.04 ± 0.06 | 1.03 ± 0.098 | 1 ± 0.076 | 1 ± 0.1 | 0.391 ± 0.11 | 0.212 ± 0.068 | 1.03 ± 0.15 | 1.06 ± 0.054 | 1.03 ± 0.067 | 0.883 ± 0.1 | 1.01 ± 0.1 | 0.999 ± 0.028 | 0.96 ± 0.13 | 0.894 ± 0.08
4 | MDAMB134 BREAST | 0.944 ± 0.11 | 0.699 ± 0.069 | 0.792 ± 0.03 | 0.835 ± 0.034 | 1.2 ± 0.058 | 1.101 ± 0.0092 | 0.788 ± 0.0092 | 0.644 ± 0.048 | 0.622 ± 0.012 | 0.659 ± 0.074 | 0.562 ± 0.0064 | 0.577 ± 0.0092 | 0.767 ± 0.12 | 0.831 ± 0.022 | 0.868 ± 0.066 | 0.718 ± 0.016
5 | HCC78 LUNG | 0.932 ± 0.33 | 0.781 ± 0.13 | 0.16 ± 0.03 | 0.091 ± 0.031 | 0.0883 ± 0.011 | 0.156 ± 0.023 | 0.112 ± 0.021 | 0.0973 ± 0.01 | 0.848 ± 0.35 | 0.812 ± 0.13 | 0.946 ± 0.086 | 0.983 ± 0.23 | 0.638 ± 0.043 | 0.775 ± 0.084 | 0.532 ± 0.081 | 0.426 ± 0.18
6 | 143B BONE | 1.01 ± 0.023 | 0.954 ± 0.0071 | 0.117 ± 0.013 | 0.0745 ± 0.005 | 0.082 ± 0.0042 | 0.114 ± 0.013 | 0.254 ± 0.0014 | 0.235 ± 0.025 | 1.05 ± 0.044 | 1.04 ± 0.057 | 1.05 ± 0.038 | 1.06 ± 0.061 | 1.08 ± 0.047 | 1.07 ± 0.039 | 1.04 ± 0.067 | 0.984 ± 0.073
7 | SJSA1 BONE | 1.01 ± 0.067 | 1.02 ± 0.068 | 0.882 ± 0.011 | 0.252 ± 0.033 | 0.174 ± 0.01 | 0.191 ± 0.0061 | 0.267 ± 0.02 | 0.236 ± 0.015 | 1.23 ± 0.12 | 1.2 ± 0.07 | 1.08 ± 0.15 | 1.31 ± 0.055 | 0.0523 ± 0.0021 | 1.64 ± 0.052 | 1.66 ± 0.053 | 1.74 ± 0.12
8 | SG32 HEADNECK | 1.22 ± 0.12 | 1.07 ± 0.18 | 0.32 ± 0.017 | 0.296 ± 0.022 | 0.292 ± 0.0097 | 0.294 ± 0.043 | 0.204 ± 0.014 | 0.16 ± 0.02 | 0.647 ± 0.084 | 0.826 ± 0.11 | 0.778 ± 0.12 | 0.839 ± 0.094 | 0.786 ± 0.15 | 0.703 ± 0.14 | 0.577 ± 0.09 | 0.501 ± 0.031
9 | SG28 HEADNECK | 1.19 ± 0.14 | 1.063 ± 0.0017 | 0.864 ± 0.04 | 0.87 ± 0.046 | 0.961 ± 0.11 | 0.687 ± 0.064 | 0.478 ± 0.084 | 0.279 ± 0.053 | 0.824 ± 0.055 | 0.803 ± 0.046 | 0.627 ± 0.081 | 0.621 ± 0.089 | 0.642 ± 0.0092 | 0.498 ± 0.059 | 0.364 ± 0.073 | 0.366 ± 0.021
10 | LM7 BONE | 0.925 ± 0.054 | 0.688 ± 0.027 | 0.0677 ± 0.0055 | 0.076 ± 0.0056 | 0.137 ± 0.013 | 0.128 ± 0.025 | 0.0773 ± 0.004 | 0.0653 ± 0.012 | 0.739 ± 0.015 | 0.657 ± 0.0061 | 0.791 ± 0.019 | 0.75 ± 0.012 | 0.88 ± 0.044 | 0.872 ± 0.085 | 0.655 ± 0.026 | 0.536 ± 0.027
11 | MHM BONE | 1.02 ± 0.021 | 0.993 ± 0.017 | 1.03 ± 0.023 | 0.831 ± 0.058 | 0.404 ± 0.013 | 0.327 ± 0.026 | 0.248 ± 0.0076 | 0.258 ± 0.015 | 0.981 ± 0.051 | 0.983 ± 0.038 | 1.03 ± 0.054 | 1 ± 0.051 | 0.9877 ± 0.0076 | 0.953 ± 0.021 | 0.903 ± 0.019 | 0.863 ± 0.018
12 | SG31 HEADNECK | 1.09 ± 0.11 | 1.27 ± 0.057 | 0.77 ± 0.099 | 0.603 ± 0.03 | 0.531 ± 0.031 | 0.573 ± 0.029 | 0.49 ± 0.034 | 0.438 ± 0.064 | 0.935 ± 0.084 | 0.907 ± 0.035 | 0.811 ± 0.043 | 0.688 ± 0.15 | 0.63 ± 0.12 | 0.581 ± 0.086 | 0.588 ± 0.045 | 0.498 ± 0.1
13 | S68 BREAST | 0.884 ± 0.16 | 0.839 ± 0.12 | 0.343 ± 0.067 | 0.271 ± 0.039 | 0.166 ± 0.013 | 0.116 ± 0.04 | 0.0923 ± 0.022 | 0.067 ± 0.015 | 0.642 ± 0.11 | 0.813 ± 0.21 | 0.748 ± 0.3 | 0.793 ± 0.04 | 1.04 ± 0.22 | 1.01 ± 0.12 | 0.636 ± 0.091 | 0.425 ± 0.12
14 | SAOS2 BONE | 1.03 ± 0.036 | 0.875 ± 0.025 | 0.083 ± 0.0052 | 0.0753 ± 0.0023 | 0.146 ± 0.0046 | 0.194 ± 0.015 | 0.129 | 0.075 | 0.853 ± 0.028 | 0.85 ± 0.042 | 0.877 ± 0.06 | 0.818 ± 0.015 | 1.02 ± 0.038 | 1.04 ± 0.12 | 0.815 ± 0.026 | 0.703 ± 0.063
15 | HS578T BREAST | 0.828 ± 0.093 | 0.73 ± 0.075 | 0.253 ± 0.013 | 0.196 ± 0.02 | 0.131 ± 0.015 | 0.132 ± 0.025 | 0.144 ± 0.0045 | 0.135 ± 0.012 | 0.851 ± 0.12 | 0.857 ± 0.1 | 0.873 ± 0.066 | 0.785 ± 0.038 | 1.04 ± 0.14 | 1 ± 0.11 | 0.918 ± 0.11 | 0.738 ± 0.14

From the supplement of paper PMC6045584
